Patent US20130165464A1, “HETEROARYLS AND USES THEREOF” (MILLENNIUM PHARMACEUTICALS, INC., priority 2011, published 2013)

Molecular target: T1, VPS34 (Homo sapiens, UniProt Q8NEB9)
T1 construct: GST (N); host or cells: SF9 insect cells (baculovirus)
Assay: Human VPS34 enzyme assay (Adapta TR-FRET)
Type: biochemical
Conditions: for inhibition at 1.11 µM: 1 h, at a 1.11 μM concentration, read-out: VPS34 Percent Inhibition
Experimental: VPS34 (accession number GB:BCO33004) was cloned into pDEST20-Thombin as N-terminal GST tagged fusion proteins using the Gateway system (Invitrogen, catalog#11804-013). The sequences were verified before recombinant protein expression using the Baculovirus Expression System with Gateway® Technology.
For expression VPS34 was infected at 1MOI in SF9 cells and harvested 72 hours post infection.
For purification, VPS34 is purified by Glutathione Sepharose 4 Fast Flow (GE Healthcare #17-5132-03) followed by HiTrap Q (GE Healthcare #17-1153-01).
Human VPS34 Enzyme Assay Method
100 nL compounds in DMSO are added to wells of a 384 well microtitre plate (Greiner 780076). At room temperature: 5 ul VPS34 reaction buffer (Invitrogen Assay Buffer Q (diluted 1 in 5 with nanopure water) plus 2 mM DTT and 2 mM MnCl2) containing ATP (20 uM, Promega) and 200 uM PI-PS substrate (Invitrogen PV5122) is added followed immediately by 5 ul VPS34 reaction buffer (as above) containing VPS34 (5 nM, Millennium Protein Sciences Group) and the mixture is incubated with shaking at room temperature for 1 hour. Then 5 ul VPS34 stop-detect mix (as per Invitrogen Adapta Assay kit (PV5009) instructions (contains kinase quench buffer, TR-FRET buffer, Adapta Eu anti-ADP antibody and Alexa Fluor 647 ADP tracer)) is added to quench the reaction. The plates are then incubated for 30 minutes at room temperature with shaking and then read on a BMG PheraStar Plus reader.
For the assay methods described above, test compound percent inhibition, at various concentrations, is calculated relative to control (DMSO and EDTA) treated samples. Compound concentration versus percent inhibition curves are fitted to generate IC50 values. One skilled in the art will appreciate that the values generated either as percentage inhibition at a single concentration or IC50 values are subject to experimental variation.

T1 sequence (Q8NEB9 whole entry): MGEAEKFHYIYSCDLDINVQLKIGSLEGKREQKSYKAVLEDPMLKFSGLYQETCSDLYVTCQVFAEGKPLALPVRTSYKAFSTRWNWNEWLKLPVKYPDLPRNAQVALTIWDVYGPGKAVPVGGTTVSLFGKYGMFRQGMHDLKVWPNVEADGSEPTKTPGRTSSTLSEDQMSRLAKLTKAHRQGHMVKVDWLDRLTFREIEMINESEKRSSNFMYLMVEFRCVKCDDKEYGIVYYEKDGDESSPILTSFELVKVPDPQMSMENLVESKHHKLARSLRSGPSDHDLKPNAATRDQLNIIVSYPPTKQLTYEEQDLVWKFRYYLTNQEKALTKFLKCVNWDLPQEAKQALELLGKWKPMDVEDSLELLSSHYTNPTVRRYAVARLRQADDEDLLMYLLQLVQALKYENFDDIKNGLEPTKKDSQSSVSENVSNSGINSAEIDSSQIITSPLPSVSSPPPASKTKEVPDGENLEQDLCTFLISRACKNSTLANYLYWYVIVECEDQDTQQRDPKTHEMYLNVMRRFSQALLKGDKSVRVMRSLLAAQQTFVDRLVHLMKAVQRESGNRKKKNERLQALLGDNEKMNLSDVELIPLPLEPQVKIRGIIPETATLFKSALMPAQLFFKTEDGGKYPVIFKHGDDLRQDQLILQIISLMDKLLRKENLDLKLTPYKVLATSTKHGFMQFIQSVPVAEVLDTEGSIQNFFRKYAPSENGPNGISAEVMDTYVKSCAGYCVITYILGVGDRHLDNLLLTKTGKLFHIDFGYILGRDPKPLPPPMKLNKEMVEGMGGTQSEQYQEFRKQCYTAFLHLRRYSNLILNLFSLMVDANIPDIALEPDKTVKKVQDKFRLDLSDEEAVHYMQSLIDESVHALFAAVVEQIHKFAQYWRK

Row | Structure (SMILES) | IC50 [nM] | inhibition at 1.11 µM [%]
1 | COC(=O)Nc1cc(-n2cc(-c3ncc[nH]3)c(-c3ccccc3Cl)n2)c(C)cn1 [I-64, methyl {4-[3-(2-chlorophenyl)-4-(1H-imidazol-2-yl)-1H-pyrazol-1-yl]-5-methylpyridin-2-yl}carbamate] | < 50 | > 99
2 | CC(=O)Nc1cc(-n2cc(-c3nc[nH]n3)c(-c3cc(CN(C)C)ccc3Cl)n2)c(C)cn1 [I-42, N-{4-[3-{2-chloro-5-[(dimethylamino)methyl]phenyl}-4-(1H-1,2,4-triazol-3-yl)-1H-pyrazol-1-yl]-5-methylpyridin-2-yl}acetamide] | < 50 | > 99
3 | CC(=O)Nc1cc(-n2cc(-c3nc[nH]n3)c(-c3ccccc3Cl)c2)c(C)cn1 [I-31, N-{4-[3-(2-chlorophenyl)-4-(1H-1,2,4-triazol-3-yl)-1H-pyrrol-1-yl]-5-methylpyridin-2-yl}acetamide] | < 50 | > 99
4 | CC(=O)Nc1cc(-n2cc(-c3nc[nH]n3)c(-c3ccccc3Cl)n2)c(C)cn1 [I-5, N-{4-[3-(2-chlorophenyl)-4-(1H-1,2,4-triazol-3-yl)-1H-pyrazol-1-yl]-5-methylpyridin-2-yl}acetamide] | < 50 | > 99
5 | COC(=O)Nc1cc(-n2cc(C(N)=O)c(-c3ccccc3Cl)c2)c(C)cn1 [I-36, methyl {4-[3-carbamoyl-4-(2-chlorophenyl)-1H-pyrrol-1-yl]-5-methylpyridin-2-yl}carbamate] | < 50 | > 99
6 | CC(=O)Nc1cc(-n2cc(-c3nc[nH]n3)c(-c3ccccc3S(C)(=O)=O)c2)ccn1 [I-38, N-(4-{3-[2-(methylsulfonyl)phenyl]-4-(1H-1,2,4-triazol-3-yl)-1H-pyrrol-1-yl}pyridin-2-yl)acetamide] |  | > 99
7 | CC(=O)Nc1cc(-n2cc(-c3ncc[nH]3)c(-c3ccccc3Cl)n2)ccn1 [I-32, N-{4-[3-(2-chlorophenyl)-4-(1H-imidazol-2-yl)-1H-pyrazol-1-yl]pyridin-2-yl}acetamide] | < 50 | > 99
8 | NC(=O)c1cn(-c2ccnc3[nH]ccc23)nc1-c1ccccc1Cl [I-7, 3-(2-chlorophenyl)-1-(1H-pyrrolo[2,3-b]pyridin-4-yl)-1H-pyrazole-4-carboxamide] | 150 to 1000 | 88
9 | Cc1cnc(NC(=O)C(C)C)cc1-n1cc(C(N)=O)c(-c2ccccc2Cl)c1 [I-33, 4-(2-chlorophenyl)-1-[2-(isobutyrylamino)-5-methylpyridin-4-yl]-1H-pyrrole-3-carboxamide] | 1000 to 5000 | 42
10 | CC(=O)Nc1cc(-n2cc(-c3nc[nH]n3)c(-c3ccccc3Cl)n2)c(Br)cn1 [I-18, N-{5-bromo-4-[3-(2-chlorophenyl)-4-(1H-1,2,4-triazol-3-yl)-1H-pyrazol-1-yl]pyridin-2-yl}acetamide] | 150 to 1000 | 89
11 | Cc1cnc(NC(=O)C2CC2)cc1-n1cc(C(N)=O)c(-c2ccccc2Cl)c1 [I-40, 4-(2-chlorophenyl)-1-{2-[(cyclopropylcarbonyl)amino]-5-methylpyridin-4-yl}-1H-pyrrole-3-carboxamide] | < 50 | > 99
12 | CC(=O)Nc1cc(-n2cc(C(N)=O)c(-c3cc(CN(C)C)ccc3Cl)c2)c(C)cn1 [I-70, 1-(2-acetamido-5-methylpyridin-4-yl)-4-{2-chloro-5-[(dimethylamino)methyl]phenyl}-1H-pyrrole-3-carboxamide] | 1000 to 5000 | 20
13 | CC(=O)Nc1cc(-n2cc(C(N)=O)c(-c3cc(CN4CCCC4)ccc3Cl)c2)c(C)cn1 [I-77, 1-(2-acetamido-5-methylpyridin-4-yl)-4-[2-chloro-5-(pyrrolidin-1-ylmethyl)phenyl]-1H-pyrrole-3-carboxamide] |  | 79
14 | COCCC(=O)Nc1cc(-n2cc(-c3nc[nH]n3)c(-c3ccccc3Cl)c2)c(C)cn1 [I-74, N-{4-[3-(2-chlorophenyl)-4-(1H-1,2,4-triazol-3-yl)-1H-pyrrol-1-yl]-5-methylpyridin-2-yl}-3-methoxypropanamide] |  | > 99
15 | CC(=O)Nc1cc(-n2nc(-c3ccccc3Cl)c(-c3nc[nH]n3)c2Br)c(Br)cn1 [I-4, N-{5-bromo-4-[5-bromo-3-(2-chlorophenyl)-4-(1H-1,2,4-triazol-3-yl)-1H-pyrazol-1-yl]pyridin-2-yl}acetamide] | 1000 to 5000 | 18
16 | COc1ccc(-c2nn(-c3cc(NC(C)=O)ncc3C)cc2-c2nc[nH]n2)c(Cl)c1 [I-35, N-{4-[3-(2-chloro-4-methoxyphenyl)-4-(1H-1,2,4-triazol-3-yl)-1H-pyrazol-1-yl]-5-methylpyridin-2-yl}acetamide] | < 50 | > 99
17 | COCCOC(=O)Nc1cc(-n2cc(-c3nc[nH]n3)c(-c3ccccc3Cl)c2)c(C)cn1 [I-78, 2-methoxyethyl {4-[3-(2-chlorophenyl)-4-(1H-1,2,4-triazol-3-yl)-1H-pyrrol-1-yl]-5-methylpyridin-2-yl}carbamate] | < 50 | > 99
18 | CC(=O)Nc1cc(-n2cc(-c3ncc[nH]3)c(-c3ccccc3Cl)n2)c(C)cn1 [I-27, N-{4-[3-(2-chlorophenyl)-4-(1H-imidazol-2-yl)-1H-pyrazol-1-yl]-5-methylpyridin-2-yl}acetamide] | < 50 | > 99
19 | Cc1cnc(NC(=O)OC2CCCCC2)cc1-n1cc(-c2nc[nH]n2)c(-c2ccccc2Cl)c1 [I-73, cyclohexyl {4-[3-(2-chlorophenyl)-4-(1H-1,2,4-triazol-3-yl)-1H-pyrrol-1-yl]-5-methylpyridin-2-yl}carbamate] |  | > 99
20 | CC(=O)Nc1cc(-n2cc(C(N)=O)c(-c3ccccc3Cl)n2)c(Cl)cn1 [I-9, 1-(2-acetamido-5-chloropyridin-4-yl)-3-(2-chlorophenyl)-1H-pyrazole-4-carboxamide] | 150 to 1000 | > 99
21 | CCN(CC)Cc1ccc(Cl)c(-c2nn(-c3cc(NC(C)=O)ncc3C)cc2-c2nc[nH]n2)c1 [I-58, N-{4-[3-{2-chloro-5-[(diethylamino)methyl]phenyl}-4-(1H-1,2,4-triazol-3-yl)-1H-pyrazol-1-yl]-5-methylpyridin-2-yl}acetamide] |  | > 99
22 | O=C(O)c1cn(-c2ccnc(NCCc3ccccc3)n2)nc1-c1ccccc1Cl [I-30, 3-(2-chlorophenyl)-1-{2-[(2-phenylethyl)amino]pyrimidin-4-yl}-1H-pyrazole-4-carboxylic acid] | 1000 to 5000 | 14
23 | CC(=O)Nc1cc(-n2cc(C(N)=O)c(-c3ccc(Cl)cc3Cl)n2)ccn1 [I-13, 1-(2-acetamidopyridin-4-yl)-3-(2,4-dichlorophenyl)-1H-pyrazole-4-carboxamide] |  | > 99
24 | O=C(O)c1cn(-c2ccnc(NCCc3ccc(O)cc3)n2)nc1-c1ccccc1Cl [I-29, 3-(2-chlorophenyl)-1-(2-{[2-(4-hydroxyphenyl)ethyl]amino}pyrimidin-4-yl)-1H-pyrazole-4-carboxylic acid] | 1000 to 5000 | 44
25 | CC(=O)Nc1cc(-n2cc(-c3ccccc3Cl)c(C(N)=O)n2)ccn1 [I-20, 1-(2-acetamidopyridin-4-yl)-4-(2-chlorophenyl)-1H-pyrazole-3-carboxamide] | 1000 to 5000 | 29
26 | CC(=O)Nc1cc(-n2cc(-c3ccccc3Cl)c(-c3nnc[nH]3)n2)ccn1 [I-1, N-{4-[4-(2-chlorophenyl)-3-(1H-1,2,4-triazol-3-yl)-1H-pyrazol-1-yl]pyridin-2-yl}acetamide] | 150 to 1000 | 98
27 | Cc1cnc(NC(=O)C2CC2)cc1-n1cc(-c2nc[nH]n2)c(-c2ccc(Cl)cc2Cl)n1 [I-67, N-{4-[3-(2,4-dichlorophenyl)-4-(1H-1,2,4-triazol-3-yl)-1H-pyrazol-1-yl]-5-methylpyridin-2-yl}cyclopropanecarboxamide] |  | > 99
28 | Cc1cnc(N)cc1-n1cc(C(N)=O)c(-c2cc(CN3CCCC3)ccc2Cl)c1 [I-75, 1-(2-amino-5-methylpyridin-4-yl)-4-[2-chloro-5-(pyrrolidin-1-ylmethyl)phenyl]-1H-pyrrole-3-carboxamide] | 1000 to 5000 | 15
29 | CC(=O)Nc1cc(-n2cc(-c3nc[nH]n3)c(-c3ccccc3Cl)n2)ccn1 [I-12, N-{4-[3-(2-chlorophenyl)-4-(1H-1,2,4-triazol-3-yl)-1H-pyrazol-1-yl]pyridin-2-yl}acetamide] | < 50 | > 99
30 | CC(=O)Nc1cc(-n2cc(-c3nc[nH]n3)c(-c3ccc(C(F)(F)F)cc3Cl)n2)c(C)cn1 [I-66, N-(4-{3-[2-chloro-4-(trifluoromethyl)phenyl]-4-(1H-1,2,4-triazol-3-yl)-1H-pyrazol-1-yl}-5-methylpyridin-2-yl)acetamide] | 150 to 1000 | 89
